Experimental data as given in patent US9011853B2, “B7-H4 fusion proteins and methods of use thereof” (Amplimmune, Inc., priority 2009, dated 2015).

Tests used:
Human T cells = experiment: Quantitative RT-PCR of human T cells under Th17 differentiation cocktail; format: cell-based; conditions: 1 μg/mL, vs Synagis (FIG. 55)
Procedure: Human T cells were activated by anti-CD3 and anti-CD28 bound beads in the presence of Th17 differntiation cocktail (TGF-β1 (10 ng/mL), IL-6 (50 ng/mL), IL-23 (4 ng/mL), anti-IL-4 (10 μg/mL), anti-IFN-γ (5 μg/mL) and anti-IL-2 (5 μg/mL)). Cells were incubated with two different variants of B7-H4-Ig (1 μg/mL) identified as Q or L, or a humanized monoclonal IgG antibody directed against an epitope in the A antigenic site of the F protein of the Respiratory Syncytial Virus (Synagis), as an isotype control.

CD4^+CD25^− T cells = experiment: Enteroantigen specific CD4+CD25- proliferation assay with cells from treated mice; format: in vivo, mouse; conditions: Balb/c mice
Procedure: Extracts were prepared by removing the colon and cecum from mice and placing the content in PBS. This was sonicated 3 times for 30 seconds on ice, followed by centrifugation at 10,000 g for 10 min to remove insoluble material. The supernatant was collected, sterile filtered, and stored at −60° C. The protein concentration in the supernatants was typically 1 to 1.5 mg/mL as determined by the bicinchoninic acid (BCA) method.
Female wild-type Balb/c, 7 to 9 weeks of age, were injected with either 60 μg or 300 μg of B7-H4-Ig, intraperitoneally (IP), 3 times a week for 2 weeks. There were 5 mice in each group. B7-H4-Ig treated mice and also naïve control mice were euthanized for T cell isolation after 2 week treatment.
The CD4^+CD25^− T cells were obtained as follows: CD4^+ T cells were positively selected from spleen single-cell suspensions using a mouse anti-CD4 monoclonal antibody-coated DYNABEAD® and the DETACHABEAD® system (Dynal AS, Oslo, Norway) according to the manufacturer's instructions. Then the CD4^+ T cells ([…] assessed by flow cytometry) were separated into CD25^+ and CD25^− T cell populations by Miltenyi's magnetic bead technology (MACS®, Miltenyi Biotech, Belgisch Gladbach, Germany) using PE-labeled anti-CD25 monoclonal antibody, followed by the addition of anti-PE microbeads and depletion according to the manufacturer's instructions. […]

[1] = tested on: mRNAs associated with Th17 cells, Tregs, autoimmune disorders and inflammation; experiment: Quantitative RT-PCR of mouse naïve T cells under Th17 differentiation cocktail; format: cell-based; conditions: 1 μg/mL, vs isotype control (Table 13, FIG. 54)
Procedure: CD4^+CD62L^+ naïve T cells were isolated from BALB/c mice as in the above examples, and activated by anti-CD3 and anti-CD28 bound beads in the presence of Th17 differntiation cocktail (TGF-β1 (10 ng/mL), IL-6 (50 ng/mL), IL-23 (4 ng/mL), anti-IL-4 (10 μg/mL), anti-IFN-γ (5 μg/mL) and anti-IL-2 (5 μg/mL)). Cells were incubated with either B7-H4-Ig (two different lots—#22 and #23—at 1 μg/mL) or isotype control. RNA was isolated from the cells and used for quantitative RT-PCR to test the expression levels of a large number of mRNAs associated with Th17 cells, Tregs, autoimmune disorders and inflammation (SA Biosciences mouse Th17 panel).

[2] = tested on: CD4^+CD62L^+ naïve T cells; experiment: In vitro induction of iTreg cells, FACS for FoxP3/CD25; format: cell-based, mouse; conditions: SJL naïve T cells, 10 ng/mL TGF-β and 50 U/mL IL-2; 0, 1, 5 or 10 μg/mL (control IgG 10 μg/ml)
Procedure: CD4^+CD62L^+ naïve T cells were first labeled with CFSE (5 μM) for 10 min at room temperature. The dye was quenched by the addition of 0.5 volumes of ice-cold fetal calf serum. The cells were incubated on ice for 5 min followed by centrifugation to collect the cell pellet. The cells were washed 2 more times in HL-1 culture media. The cells were then cultured in the presence of TGF-β (10 ng/mL) and IL-2 (10, 50, 100 U/mL) for 3 days before intracellular staining with anti-FoxP3 APC. FACS analysis was conducted to detect the FoxP3^+, in vitro expanded iTreg cells.
Therefore, it was next examined if B7-H4-Ig treatment of naïve CD4^+CD62L^+ T cells in the presence of inducible Treg (iTreg) cell-promoting conditions would results in an increase in the numbers of CD4^+CD25^+FoxP3^+ iTreg cells. First the in vitro iTreg induction culture conditions were optimized to allow for experimental conditions to assess what additional effect, if any, B7-H4-Ig has on iTreg induction. CD4^+ T cells were isolated from female SJL mice. Purified mouse CD4^+CD62L^+ T cells were first labeled with CSFE and induced to iTreg cells in the presence of TGF-β (10 ng/mL) and IL-2 at concentrations of 0, 50 or 100 U/mL. FACS analysis was performed 3 days later to detect FoxP3 expression and CFSE content. A FoxP3 positive and CFSE diluted cell population was detected when using 100 U/mL of IL-2 for iTreg differentiation. […]

Question: Which “expression of mRNA involved in Th17 cell differentiation (RORc, IL-17A, IL-17F, IL-21, IL-22)” value (Human T cells) does the source give for “B7-H4-Ig: B7-H4 extracellular domain fused to Ig Fc; bare label is the human protein in Example 3, murine protein in Examples 1, 2, 5, 7-11” here?
Answer: downregulates the expression of mRNA involved in Th17 cell differentiation

Question: And the “enteroantigen specific CD4+CD25− T effector cell response” value (CD4^+CD25^− T cells; 60 μg or 300 μg IP 3 times a week for 2 weeks (FIG. 52))?
Answer: barely affected

Question: And the “Tregs from treated mice: blocking of enteroantigen priming and T cell proliferation” value (CD4^+CD25^− T cells; 60 μg or 300 μg IP 3 times a week for 2 weeks, vs Tregs from control mice (FIG. 51))?
Answer: more potent in blocking enteroantigen priming and T cell proliferation

Question: And the “expression of mRNA involved in Th17 cell differentiation (RORc, IL-17A, IL-17F, IL-21, IL-22)” value [1]?
Answer: downregulates the expression of mRNA involved in Th17 cell differentiation

Question: What about the “percentage of FoxP3+CD25+ iTregs” value [2] of the same substance?
Answer: increased the percentage of FoxP3^+CD25^+ iTregs in a dose-dependent manner
